Experimental data: US20260297060A1, “COMPOUNDS FOR THE DEGRADATION OF MUTANT BRAF” (C4 THERAPEUTICS, INC., priority 2023, published 2026)
Where two headings read alike, the source gives them in different places.

What was measured:
[1] = Example 7 pharmacokinetics assay for efficacy study (plasma, liver); assay type: in vivo, BALB/c nude mice; conditions: mouse, po, 100 mg/kg, p.o., QD × 14 days
Procedure: For efficacy study, agents were tested in the A375 human melanoma xenografts. Compound 118, Compound 156, and Compound 180 were administered to BALB/c nude mice bearing A375 xenografts from day 0 and dosed p.o. twice per day (BID). Compound 141 was administered from day 0 and dosed p.o. twice per day (BID) or dosed p.o. daily (QD) from day 1. Compound 141, Compound 118, Compound 156, and Compound 180 were dosed at 10 mg/kg for 14 days. The known BRAF inhibitor Dabrafenib was used as a positive control. Dabrafenib was administered from day 1 and dosed p.o. daily (QD) for 14 days and dosed at 100 mg/kg.
The plasma samples were collected at predetermined time points for PK analysis. The mice were euthanized at predetermined time points post the treatment. The blood samples were collected into the 1.5 mL Eppendorf tubes containing 15 μL of 0.5 M EDTA-K2. And then the anticoagulant blood samples were centrifuged at 2,500 g at 4° C. for 15 minutes. The plasma samples were separated into 2 aliquots. The 1st was used for PK analysis, and the 2nd served as backup. The samples were stored at −80° C. before bioanalysis.
Liver samples were collected at predetermined time points for PK analysis. The left lobe of the liver was dissected out and split into 2 parts. The 1st part was used for PK analysis and the 2nd part served as the backup for the study. The samples were transferred into pre-labeled tubes and quickly froze in liquid nitrogen within 2 minutes after dissection. The samples were stored at −80° C. before bioanalysis.
The harvested plasma and liver samples were processed for pharmacokinetics analysis by LC-MS/MS with a concentration range of 0.500~500 ng/mL for Dabrafenib in plasma and liver homogenate, 20.0~20,000 ng/mL for Compound 141, Compound 180 and Compound 118 in plasma and liver, 10.0~10,000 ng/mL for Compound 156 in plasma and liver.

[2] = Pharmacokinetics after 21 days dosing in the efficacy study (plasma, tumor and brain concentrations; plasma AUC at steady state), Example 14; assay type: in vivo, female BALB/c nude mice
Procedure: Agents were tested in the A375 human melanoma xenografts. Compound 26 and Compound 141 were administered to BALB/c nude mice bearing A375 tumors from PG-DO and dosed via PO twice a day (BID) or third a day (TIP) or dosed P daily (QD) from PG-D. Dabrafenib was administered to BALB/c nude mice bearing A375 tumors from PG-D1 and dosed via P daily (QD). Compound 26 was dosed at 1.5 mg/kg (QD), 2 mg/kg (TID), 3 mg/kg (BID), 6 mg/kg (QD) and 10 mg/kg (BID) for 21 days. Compound 141 was dosed at 0.75 mg/kg (BID), 1 mg/kg (TID), 1.5 mg/kg (BID), 3 mg/kg (QD) and 5 mg/kg (BID) for 21 days. Dabrafenib was dosed at 100 mg/kg for 21 days. This study was non-GLP.
The plasma samples were collected at predetermined time points for PK analysis. For non-termination plasma collection: the blood samples were collected into the 1.5 mL Eppendorf tubes containing 3 μL of 0.5 M EDTA-K2. And then the anticoagulant blood samples were centrifuged at 2,500 g at 4° C. for 15 minutes. For termination plasma collection: the mice was euthanized at predetermined time points post the treatment, the blood samples were collected into the 1.5 mL Eppendorf tubes containing 15 μL of 0.5 M EDTA-K2. And then the anticoagulant blood samples were centrifuged at 2,500 g at 4° C. for 15 minutes. The plasma samples were separated into 2 aliquots. The 1st was used for PK analysis, and the 2nd was served as backup.
The tumor samples were collected at predetermined time points for PK and WB analysis. The tumor was dissected out and split into 3 parts. The 1st part was used for PK analysis, the 2nd part was used for WB analysis and the last one was used as backup for the study. The samples were transferred into pre-labeled tubes and quickly froze in liquid nitrogen within 2 minutes after dissection. The samples were stored at −80° C. before analysis.
The brain samples were collected at predetermined time points for PK and potential WB analysis. The brain was dissected out and split into 3 parts (left brain, right brain upper and right brain lower), the left brain was used for PK, the right brain upper was used for WB and the last one was used as the backup for the study. The samples were transferred into pre-labeled tubes and quickly froze in liquid nitrogen within 2 minutes after dissection. The samples were stored at −80° C. before analysis.
The harvested plasma and tumor samples were processed for pharmacokinetics analysis by LC-MS/MS with a concentration range of 1.00-1,000 ng/mL for dabrafenib in plasma and 0.0500-50 ng/mL in tumor and brain homogenate, 5.00-10,000 ng/mL for Compound 141 in plasma and 0.200~200 ng/ml in tumor and brain homogenate. 20.0~20,000 ng/mL for Compound 26 in plasma and 0.5~500 ng/mL for Compound 26 tumor and brain homogenate.
Dabrafenib, Compound 26 and Compound 141 in female BALB/c nude mice plasma (K2-EDTA), tumor and brain homogenate were analyzed by LC-MS/MS (Triple Quad 6500+ Low Mass). Verapamil (5 ng/mL) in acetonitrile: methanol (V: V=95:5) was used as the internal standard for Dabrafenib, Compound 26 and Compound 141 in plasma. Verapamil (0.5 ng/mL) in acetonitrile: methanol (V: V=95:5) was used as the internal standard for Dabrafenib, Compound 26 and Compound 141 in tumor and brain homogenate.
An aliquot of 10 μL unknown sample, calibration standard, quality control, dilute quality control, single blank and double blank samples were added to the 96-well plate. Each sample for Dabrafenib, Compound 26 and Compound 141 in plasma (except the double blank) was quenched with 200 μL IS respectively (double blank sample was quenched with 200 μL ACN: MeOH (V: V=95:5)); each sample for Dabrafenib, Compound 26 and Compound 141 in tumor and brain(except the double blank) was quenched with 100 μL IS respectively (double blank sample was quenched with 100 μL ACN: MeOH (V: V=95:5)); and then the mixture was vortex-mixed for 5 min at 800 rpm and centrifuged for 15 min at 3220 g (4000 rpm), 4° C. […]

Structure (SMILES): CC(C)(C)c1nc(-c2cccc(NS(=O)(=O)c3c(F)cccc3F)c2F)c(-c2ccnc(N)n2)s1 [Dabrafenib, dabrafenib, reference compound]
- concentration at 6 h ([1]; liver, read-out: Concentration in Liver (mean ± SEM)): 195 ± 32.1 ng/g
- concentration at 6 h ([1]; plasma, read-out: Concentration in Plasma (mean ± SEM)): 80.5 ± 17.3 ng/mL
- Concentration in Brain ([2]; 100 mg/kg p.o. QD x 21 days, 24 h, BQL: below the lower limit of quantitation): BQL^a
- concentration at 4 h ([2]; mouse, brain, po, 100 mg/kg p.o. QD x 21 days, mean ± SEM, read-out: Concentration in Brain): 3.59 ± 0.558 ng/g
- concentration at 0.25 h ([2]; mouse, plasma, po, 100 mg/kg p.o. QD x 21 days, 0.25 h, mean ± SEM): 38700 ± 2110 ng/mL
- concentration at 0.5 h ([2]; mouse, plasma, po, 100 mg/kg p.o. QD x 21 days, 0.5 h, mean ± SEM): 25700 ± 5690 ng/mL
- concentration at 1 h ([2]; mouse, plasma, po, 100 mg/kg p.o. QD x 21 days, 1 h, mean ± SEM): 3270 ± 443 ng/mL
- concentration at 2 h ([2]; mouse, plasma, po, 100 mg/kg p.o. QD x 21 days, 2 h, mean ± SEM): 444 ± 129 ng/mL
- concentration at 4 h ([2]; mouse, plasma, po, 100 mg/kg p.o. QD x 21 days, mean ± SEM, read-out: Concentration in Plasma): 54.4 ± 7.02 ng/mL
- concentration at 8 h ([2]; mouse, plasma, po, 100 mg/kg p.o. QD x 21 days, 8 h, mean ± SEM): 55.4 ± 4.19 ng/mL
- concentration at 10 h ([2]; mouse, plasma, po, 100 mg/kg p.o. QD x 21 days, 10 h, mean ± SEM): 24 ± 6.86 ng/mL
- concentration at 24 h ([2]; mouse, plasma, po, 100 mg/kg p.o. QD x 21 days, 24 h, read-out: Concentration in Plasma): 2.27 ng/mL
- AUC ([2]; mouse, plasma, po, 100 mg/kg p.o. QD × 21 days, read-out: Plasma AUC at steady state (Day 21), Average): 18100 ng·h/mL
- concentration at 4 h ([2]; mouse, tumor, po, 100 mg/kg p.o. QD x 21 days, mean ± SEM, read-out: Concentration in Tumor): 137 ± 7.51 ng/g
- concentration at 24 h ([2]; mouse, tumor, po, 100 mg/kg p.o. QD x 21 days, 24 h, mean ± SEM, read-out: Concentration in Tumor): 1.43 ± 0.191 ng/g
